Entries after “also recorded” stand apart in the source; their conditions may differ.
Key:
[1] = BAC-Q22 mice, survival / tolerability; assay type: in vivo; settings: IP every other day, 17-DMAG 100 mg/kg, HSP990 4 mg/kg
Description: (§1) BAC-ATXN2-Q22 (BAC-Q22) mice were used as previously described. BAC-Q22 are transgenic for the complete human ATXN2 gene with all introns and exons, including 16 kb upstream sequence driving ATXN2 expression and the complete 3′-UTR. The mice used in this study were maintained on a mixed B6;D2 background with backcrossing to wildtype vendor-purchased (Jackson Laboratories) mice every five generations. Mice were treated with 17-DMAG or HSP990 by intraperitoneal (IP) injection, 200-300 μl total volume. 17-DMAG was diluted in 40% DMSO and 0.05% Tween 20 and mice received 100 mg/kg 17-DMAG. HSP990 was diluted in 0.6% DMSO and 0.05% Tween 20 and mice received 4 mg/kg HSP990. Control treated mice included vehicle alone. Mice were treated repeatedly as described in Results. Mouse husbandry and surgical procedures were in accordance to Institutional Animal Care and Use Committee (IACUC) approved protocols.
Since 17-DMAG reduced expression of both the wildtype and mutant ATXN2 proteins, its effects were tested using only ATXN2-BAC mice harboring the non-mutant human ATXN2-Q22 gene (BAC-Q22 mice). Reliable detection of mutant ATXN2 protein by western blot in samples isolated from SCA2 BAC mice is possible, but it is challenging and involves use of the 1C2 antibody. […] Three blots were quantified. […]

HSP70 = test: BAC-Q22 mice, HSP70 western blot; assay type: in vivo; settings: IP every other day, 17-DMAG 100 mg/kg, HSP990 4 mg/kg
Description: as §1
Proteins were prepared, separated on precast polyacrylamide gels (Bio-Rad), transferred to Hybond (Amersham) and detected by ECL (Amersham) as previously described. […]
Since 17-DMAG reduced expression of both the wildtype and mutant ATXN2 proteins, its effects were tested using only ATXN2-BAC mice harboring the non-mutant human ATXN2-Q22 gene (BAC-Q22 mice). […] Three blots were quantified.

[2] = cited from earlier work
ATXN2-Q22 = test: BAC-Q22 mice, ATXN2 western blot; assay type: in vivo
Description: as §1
Proteins were prepared, separated on precast polyacrylamide gels (Bio-Rad), transferred to Hybond (Amersham) and detected by ECL (Amersham) as previously described.
Antibodies included the following: mouse monoclonal anti-Ataxin-2 antibody (Clone 22/Ataxin-2) (BD Biosciences, 611378), rabbit monoclonal anti-Hsp70 antibody (EPR16892) (Abcam, ab181606), mouse monoclonal anti-β-Actin-peroxidase antibody (clone AC-15) (Sigma-Aldrich, A3854), rabbit polyclonal anti-Staufen antibody (Novus Biologicals, NBP1-33202), mouse monoclonal anti-CHOP (L63F7) antibody (Cell Signaling Technology, 2895), rabbit polyclonal anti-phospho-eIF2a (Ser51) antibody (Cell Signaling Technology, 9721), rabbit polyclonal anti-mTOR antibody (Cell Signaling Technology, 2972), rabbit polyclonal anti-SQSTM1/p62 antibody (Cell Signaling Technology, 5114), rabbit polyclonal anti-LC3B antibody (Novus Biologicals, NB100-2220), rabbit monoclonal anti-BiP antibody (C50B12) (Cell Signaling Technology, 3177). Secondary antibodies included peroxidase-conjugated horse anti-mouse IgG (Vector Laboratories, PI-2000) and peroxidase AffiniPure goat anti-rabbit IgG (Jackson ImmunoResearch Laboratories, 111-035-144).
Since 17-DMAG reduced expression of both the wildtype and mutant ATXN2 proteins, its effects were tested using only ATXN2-BAC mice harboring the non-mutant human ATXN2-Q22 gene (BAC-Q22 mice). Reliable detection of mutant ATXN2 protein by western blot in samples isolated from SCA2 BAC mice is possible, but it is challenging and involves use of the 1C2 antibody. To test efficacy of 17-DMAG in the wildtype ATXN2 mice, 27 wk old BAC-Q22 mice were treated (n=4 per group, 2 males, 2 females) every other day over 16-days (days 1, 3, 5, 7, 9, 11, 13, 15) then sacrificed on day 16. […] Three blots were quantified.

For `COc1cccc(-c2cc(F)ccc2[C@H]2Cc3nc(N)nc(C)c3C(=O)N2)n1` [HSP990], the survival / tolerability [1] is listed as “the two females in the HSP990 treatment group did not survive; also recorded: half of the mice treated with HSP990 did not survive treatment”, the HSP70 (HSP70) is listed as “increased HSP70” and the “toxicity in clinical trial” value [2] is listed as “dose-limiting neurotoxicities”. For the same compound, the “reduction of ATXN2 protein abundance” value (ATXN2-Q22; ATXN2-BAC mice, IP, 17-DMAG 100 mg/kg, HSP990 4 mg/kg) was 80% and the ATXN2 abundance (ATXN2-Q22; BAC-Q22 mice, IP every other day, 17-DMAG 100 mg/kg 16 days, HSP990 4 mg/kg 10 days) was “reduced ATXN2 abundance”.

— patent publication US20260137707A1, “METHODS OF MODULATING ATXN2 EXPRESSION” (University of Utah Research Foundation, priority 2022, published 2026)
